Reference: patent US20260294922A1, “Inhibitors of JUN N-Terminal Kinases (JNK1, JNK2, and/or JNK3) and Mitogen-Activated Protein Kinases (MAPK8, MAPK9, and/or MAPK10) and Methods of Using Same” (Baylor College of Medicine, priority 2023, published 2026)
Values after ≈ are worked out from the molar mass of the structure shown. Like-named read-outs stand apart in the source and are kept apart here.

Assays:
[1] = target: T1, JNK1 (Homo sapiens, UniProt P45983); assay: JNK1 kinase (intrinsic ATPase, Kinase-Glo) assay; assay type: biochemical
Method: JNK1, JNK2, and JNK3 hydrolyze ATP to ADP without any peptide substrates. This allows a very robust and fast endpoint assay where the remaining concentration of ATP is measured (BMG ClarioStar Plus plate reader) using the Kinase-Glo Assay kit from Promega (V6711). A luminescence signal is measured, which is produced by the catalytic conversion of beetle luciferin to oxyluciferin by luciferase. Potential inhibition of luciferase (i.e., false negatives) is easily detected, because assays without kinase are always included, and less ATP than is present in this control reaction could also indicate an inhibition of luciferase, which can be excluded by a counter screen with only luciferase.
To mitigate violation of the linear initial velocity principle, which is a problem in end-point assays when doing dose-responses, the enzyme concentration was carefully optimized, in a total assay volume of 25 μL. […] The kinase reaction was done for 30 or 60 min at 30° C., and detection of leftover ATP was measured according to Promega's protocol. […] Fractional activities were obtained from normalized data. Non-linear regression (GraphPad Prism7) and a modified Morrison equation for tight binding was used to determine apparent Ki values for inhibitors, assuming no particular mode of inhibition. An orthogonal binding assay (LanthaScreen) was outsourced to ThermoFisher Scientific's SelectScreen Services to determine IC50 values.

[2] = target: T1, JNK1; assay: Promega NanoBRET intracellular target engagement (tracer K10 displacement), JNK1; assay type: cell-based
[3] = target: T2, JNK2 (Homo sapiens, UniProt P45984); assay: Promega NanoBRET intracellular target engagement (tracer K10 displacement), JNK2; assay type: cell-based
[4] = target: T2, JNK2; assay: JNK2 kinase (intrinsic ATPase, Kinase-Glo) assay; assay type: biochemical
[5] = target: T3, JNK3 (Homo sapiens, UniProt P53779); assay: JNK3 kinase (intrinsic ATPase, Kinase-Glo) assay; assay type: biochemical
[6] = target: T3, JNK3; assay: Promega NanoBRET intracellular target engagement (tracer K10 displacement), JNK3; assay type: cell-based
[7] = Solubility
[8] = In vitro metabolism in mouse liver microsomes; conditions: mouse, microsomes
Method: (§1) The target product profile seeks to deliver JNK inhibitor as a once daily oral administration. To prioritize compounds for further development, in vitro metabolism of several CDD JNK inhibitors were determined to approximate the plasma half-life and the rate of metabolism of the compounds in vivo.

[9] = In vitro metabolism in human liver microsomes; conditions: human, microsomes
Method: as §1

T2 sequence (P45984 whole entry): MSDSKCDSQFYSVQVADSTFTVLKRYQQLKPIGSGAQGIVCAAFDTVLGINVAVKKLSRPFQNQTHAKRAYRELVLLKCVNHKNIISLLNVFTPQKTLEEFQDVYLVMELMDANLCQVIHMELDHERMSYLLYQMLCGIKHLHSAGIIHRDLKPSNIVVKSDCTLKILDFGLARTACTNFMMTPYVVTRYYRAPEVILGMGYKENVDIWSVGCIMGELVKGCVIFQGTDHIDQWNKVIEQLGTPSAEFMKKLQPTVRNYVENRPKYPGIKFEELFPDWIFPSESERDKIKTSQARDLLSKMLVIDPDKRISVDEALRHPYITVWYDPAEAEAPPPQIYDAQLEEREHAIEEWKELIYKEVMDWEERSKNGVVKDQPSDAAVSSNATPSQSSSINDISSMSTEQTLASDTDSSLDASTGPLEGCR
T1 sequence (P45983 whole entry): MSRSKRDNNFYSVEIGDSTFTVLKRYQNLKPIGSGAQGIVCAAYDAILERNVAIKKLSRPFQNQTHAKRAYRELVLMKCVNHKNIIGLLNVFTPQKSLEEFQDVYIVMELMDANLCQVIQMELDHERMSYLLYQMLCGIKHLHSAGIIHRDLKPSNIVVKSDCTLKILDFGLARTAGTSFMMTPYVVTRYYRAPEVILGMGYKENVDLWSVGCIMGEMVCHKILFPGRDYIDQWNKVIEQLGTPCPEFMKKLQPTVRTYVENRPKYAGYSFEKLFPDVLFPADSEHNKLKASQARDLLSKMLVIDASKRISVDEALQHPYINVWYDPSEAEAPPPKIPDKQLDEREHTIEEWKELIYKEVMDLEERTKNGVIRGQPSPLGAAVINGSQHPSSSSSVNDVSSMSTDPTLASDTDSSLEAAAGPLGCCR
T3 sequence (P53779 whole entry): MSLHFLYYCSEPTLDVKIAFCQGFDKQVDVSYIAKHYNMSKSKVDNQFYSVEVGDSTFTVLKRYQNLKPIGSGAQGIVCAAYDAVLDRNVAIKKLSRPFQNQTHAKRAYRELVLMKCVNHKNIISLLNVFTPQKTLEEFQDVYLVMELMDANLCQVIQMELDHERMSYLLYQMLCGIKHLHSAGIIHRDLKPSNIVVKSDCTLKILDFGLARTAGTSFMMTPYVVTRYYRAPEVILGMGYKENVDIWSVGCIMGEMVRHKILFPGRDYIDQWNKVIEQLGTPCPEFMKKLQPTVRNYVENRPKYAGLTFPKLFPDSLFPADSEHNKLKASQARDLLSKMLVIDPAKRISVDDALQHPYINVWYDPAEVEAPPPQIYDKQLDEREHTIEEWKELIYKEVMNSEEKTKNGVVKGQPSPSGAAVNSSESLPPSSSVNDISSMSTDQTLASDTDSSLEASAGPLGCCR

SMILES | Ki ([1]; Table 3b, read-out: Ki(app) JNK1) | IC50 [2] | IC50 [3] | Kd [1] | Kd ([4]; Table 3a, read-out: Kd JNK2) | Kd ([5]; Table 3a, read-out: Kd JNK3) | IC50 [6] | solubility [7] | half-life [8] | half-life [9] | Kd [4] | Kd [5]
CNC(=O)CN1[C@H](CC(=O)NCCCN(C)c2ccc(F)cc2)CNC[C@H]1C [CDD-2272, N-(3-((4-fluorophenyl)(methyl)amino)propyl)-2-((2R,6R)-6-methyl-1-(2-(methylamino)-2-oxoethyl)piperazin-2-yl)acetamide] | 860 nM | 60000 nM | 58000 nM |  |  |  |  |  |  |  |  | 
Cc1ccc(NC(=O)c2ccn3ncc(-c4cnc5[nH]ccc5c4)c3c2)cc1 [CDD-2288, 3-(1H-pyrrolo[2,3-b]pyridin-5-yl)-N-(p-tolyl)pyrazolo[1,5-a]pyridine-5-carboxamide] |  | 830 nM | 900 nM | 0.36 ± 0.11 nM | 1.63 ± 0.14 nM | 1.41 ± 0.07 nM | 1500 nM | 1 µM (≈ 0.367 µg/mL) |  |  |  | 
Cc1ccc(NC(=O)c2ccn3ncc(-c4cncc5ccccc45)c3c2)cc1 [CDD-2325, 3-(isoquinolin-4-yl)-N-(p-tolyl)pyrazolo[1,5-a]pyridine-5-carboxamide] |  | 1400 nM | 890 nM | 0.28 ± 0.12 nM | 1.27 ± 0.14 nM | 1.18 ± 0.09 nM | 1200 nM | 2.3 µM (≈ 0.87 µg/mL) | 0.517 h | 0.128 h |  | 
CNC(=O)c1ccc(NC(=O)c2ccn3ncc(-c4cnc5[nH]ccc5c4)c3c2)cc1 [CDD-2461, N-(4-(methylcarbamoyl)phenyl)-3-(1H-pyrrolo[2,3-b]pyridin-5-yl)pyrazolo[1,5-a]pyridine-5-carboxamide] |  | 49500 nM | 5300 nM | 0.2 ± 0.18 nM | 0.32 ± 0.12 nM | 0.33 ± 0.03 nM |  | 1.8 µM (≈ 0.739 µg/mL) | 0.513 h | 1.19 h |  | 
CNCc1ccc(NC(=O)c2ccc3ncc(-c4cnc5[nH]ccc5c4)n3c2)cc1 [CDD-2488, N-(4-((methylamino)methyl)phenyl)-3-(1H-pyrrolo[2,3-b]pyridin-5-yl)imidazo[1,2-a]pyridine-6-carboxamide] |  | 66000 nM | 13500 nM | 3.1 ± 0.8 nM | 3.08 ± 0.16 nM | 4.34 ± 0.6 nM | 34800 nM | 124 µM (≈ 49.2 µg/mL) | 2.1 h | 1.99 h |  | 
CNC(=O)c1cc(NC(=O)c2cc3c(-c4cnc5[nH]ccc5c4)cccc3s2)ccc1OC [CDD-2490, N-(4-methoxy-3-(methylcarbamoyl)phenyl)-4-(1H-pyrrolo[2,3-b]pyridin-5-yl)benzo[b]thiophene-2-carboxamide] |  | 6300 nM | 2000 nM | 1.52 ± 0.3 nM |  |  | 29300 nM | 0.4 µM (≈ 0.183 µg/mL) |  |  | 5.37 ± 0.42 nM | 3.53 nM
CNC(=O)c1ccn2ncc(-c3cnc4[nH]ccc4c3)c2c1 [CDD-2574, N-methyl-3-(1H-pyrrolo[2,3-b]pyridin-5-yl)pyrazolo[1,5-a]pyridine-5-carboxamide] |  | 7300 nM | 5400 nM | 1.69 ± 0.39 nM | 12.5 ± 0.68 nM | 6.56 ± 0.85 nM | 5900 nM | 11.1 µM (≈ 3.23 µg/mL) | 0.125 h | 0.608 h |  | 
CNC(=O)c1cc2c(-c3cnc4[nH]ccc4c3)cccc2s1 [CDD-2627, N-methyl-4-(1H-pyrrolo[2,3-b]pyridin-5-yl)benzo[b]thiophene-2-carboxamide] |  | 14800 nM | 6100 nM | 3.74 ± 0.93 nM | 14.8 ± 0.95 nM | 9 ± 2.4 nM | 23000 nM | 40.3 µM (≈ 12.4 µg/mL) |  |  |  | 
O=C(Nc1cccc(C(=O)N2CCCCC2)c1)c1cc2c(-c3cnc4[nH]ccc4c3)cccc2s1 [CDD-2630, N-(3-(piperidine-1-carbonyl)phenyl)-4-(1H-pyrrolo[2,3-b]pyridin-5-yl)benzo[b]thiophene-2-carboxamide] |  | 430 nM | 230 nM | 0.68 ± 0.08 nM | 2.47 ± 0.25 nM | 1.63 ± 0.26 nM | 149 nM | 1.6 µM (≈ 0.769 µg/mL) | 0.0583 h | 0.303 h |  | 

The next lines start with the values.

Ki ([1]; Table 3b, read-out: Ki(app) JNK1) | IC50 [2] | IC50 [3] | Kd [1] | Kd ([4]; Table 3a, read-out: Kd JNK2) | Kd ([5]; Table 3a, read-out: Kd JNK3) | IC50 [6] | solubility [7] | half-life [8] | half-life [9] | Kd [4] | Kd [5] | SMILES
 | 1000 nM | 1000 nM | 1.2 ± 0.16 nM | 6.5 ± 0.63 nM | 1.93 ± 0.14 nM | 781 nM |  | 0.335 h | 0.918 h |  |  | Cc1ccc(NC(=O)c2cc3c(-c4cnc5[nH]ccc5c4)cccc3s2)cc1C(=O)N(C)C [CDD-2729, N-(3-(dimethylcarbamoyl)-4-methylphenyl)-4-(1H-pyrrolo[2,3-b]pyridin-5-yl)benzo[b]thiophene-2-carboxamide]
 | 4910 nM | 4200 nM | 1.52 ± 0.15 nM | 12.2 ± 1.3 nM | 2.68 ± 0.2 nM | 5300 nM |  | 1.92 h | 3.43 h |  |  | CN(C)C(=O)c1cc(NC(=O)c2cc3c(-c4cnc5[nH]ccc5c4)cccc3o2)ccc1O [CDD-2855, N-(3-(dimethylcarbamoyl)-4-hydroxyphenyl)-4-(1H-pyrrolo[2,3-b]pyridin-5-yl)benzofuran-2-carboxamide]
 | 702 nM | 780 nM | 1.62 ± 0.31 nM |  |  | 1140 nM |  | 1.15 h | 4.55 h | 9.09 ± 0.53 nM | 3.2 nM | NC(=O)c1cccc(NC(=O)c2cc3c(-c4cnc5[nH]ccc5c4)cccc3s2)c1 [CDD-2936, N-(3-carbamoylphenyl)-4-(1H-pyrrolo[2,3-b]pyridin-5-yl)benzo[b]thiophene-2-carboxamide]
 | 1600 nM | 1460 nM | 0.28 ± 0.05 nM | 4.53 ± 0.55 nM | 1.67 ± 0.06 nM | 1130 nM |  | 0.967 h | 3.22 h |  |  | CN(C)C(=O)c1cc(O)cc(NC(=O)c2cc3c(-c4cnc5[nH]ccc5c4)cccc3s2)c1 [CDD-2937, N-(3-(dimethylcarbamoyl)-5-hydroxyphenyl)-4-(1H-pyrrolo[2,3-b]pyridin-5-yl)benzo[b]thiophene-2-carboxamide]
 | 254 nM | 228 nM | 0.39 ± 0.12 nM | 2.23 ± 0.12 nM | 2.7 ± 0.29 nM | 235 nM |  | 2.18 h | 5.97 h |  |  | Cc1c[nH]c2ncc(-c3cccc4sc(C(=O)Nc5ccc(O)c(C(=O)N(C)C)c5)cc34)cc12 [CDD-3017, N-(3-(dimethylcarbamoyl)-4-hydroxyphenyl)-4-(3-methyl-1H-pyrrolo[2,3-b]pyridin-5-yl)benzo[b]thiophene-2-carboxamide]
 |  | 10900 nM | 3.58 ± 0.47 nM | 11.4 ± 1 nM | 5.17 ± 0.33 nM | 31700 nM | 1.5 µM (≈ 0.686 µg/mL) | 0.98 h | 8.85 h |  |  | CN(C)C(=O)c1cc(NC(=O)c2cc3c(-c4cnc5[nH]ncc5c4)cccc3s2)ccc1O [CDD-3018, N-(3-(dimethylcarbamoyl)-4-hydroxyphenyl)-4-(1H-pyrazolo[3,4-b]pyridin-5-yl)benzo[b]thiophene-2-carboxamide]
